Earlier results on 1 compound are cited in patent US20180311203A1, “LIQUID FORMULATION OF CABAZITAXEL” (EMCURE PHARMACEUTICALS LIMITED, priority 2015, published 2018).

Consider `CO[C@H]1C(=O)[C@]2(C)[C@@H](OC)C[C@H]3OC[C@@]3(OC(C)=O)[C@H]2[C@H](OC(=O)c2ccccc2)[C@]2(O)C[C@H](OC(=O)[C@H](O)[C@@H](NC(=O)OC(C)(C)C)c3ccccc3)C(C)=C1C2(C)C` [cabazitaxel, (2α,5β,7β, 10β,13a)-4-acetoxy-13-({(2R,3S)-3 [(tertbutoxycarbonyl)amino]-2-hydroxy-3-phenylpropanoyl}oxy)-1-hydroxy-7,10-dimethoxy-9-oxo-5,20-epoxytax-11-en-2-yl benzoate], for which the solubility in water entry was “about 8 pg per mL”.
